According to US10640506B2, “Cyclobutyl substituted pyrrolopyridine and pyrrolopyrimidines derivatives as JAK inhibitors” (Incyte Corporation, priority 2010, dated 2020):
Counter-ions that a name gives are not always drawn. Like-named read-outs stand apart in the source and are kept apart here.

Key:
[1] = biological target: human JAK1 (a.a. 837-1142) (Homo sapiens, UniProt P23458); experiment: In vitro JAK kinase assay (HTRF, phosphorylation of biotinylated peptide), JAK1; type: biochemical; conditions: 1 mM ATP, read-out: JAK1 IC50
Chain of human JAK1 (a.a. 837-1142) (P23458 849-1154): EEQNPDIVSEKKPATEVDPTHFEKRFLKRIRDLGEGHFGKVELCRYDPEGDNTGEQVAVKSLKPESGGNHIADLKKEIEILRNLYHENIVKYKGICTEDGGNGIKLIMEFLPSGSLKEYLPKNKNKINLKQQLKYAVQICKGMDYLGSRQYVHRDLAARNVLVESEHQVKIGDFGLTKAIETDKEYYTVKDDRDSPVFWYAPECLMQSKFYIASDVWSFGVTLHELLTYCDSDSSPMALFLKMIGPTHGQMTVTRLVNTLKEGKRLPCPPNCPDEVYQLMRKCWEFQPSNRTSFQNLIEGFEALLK
Protocol: Compounds herein were tested for inhibitory activity of JAK targets according to the following in vitro assay described in Park et al., Analytical Biochemistry 1999, 269, 94-104. The catalytic domains of human JAK1 (a.a. 837-1142) and JAK2 (a.a. 828-1132) with an N-terminal His tag were expressed using baculovirus in insect cells and purified. The catalytic activity of JAK1 and JAK2 was assayed by measuring the phosphorylation of a biotinylated peptide. The phosphorylated peptide was detected by homogenous time resolved fluorescence (HTRF). […] Reactions were carried out at room temperature for 1 hour and then stopped with 20 μL 45 mM EDTA, 300 nM SA-APC, 6 nM Eu-Py20 in assay buffer (Perkin Elmer, Boston, Mass.). Binding to the Europium labeled antibody took place for 40 minutes and HTRF signal was measured on a Fusion plate reader (Perkin Elmer, Boston, Mass.). […] Data is indicated as ranges, wherein “+” is less than 10 nM; “++” is 10 nM to 25 nM; “+++” is greater than 25 nM to 100 nM; and “++++” is greater than 100 nM. Greater than 25 nM to 100 nM specifies a range with a lower endpoint “at greater than 25 nM” and an upper endpoint at 100 nM.

JAK2 (a.a. 828-1132) = biological target: T1, JAK2 (a.a. 828-1132) (Homo sapiens, UniProt O60674); experiment: In vitro JAK kinase assay (HTRF, phosphorylation of biotinylated peptide), JAK2; type: biochemical; conditions: 1 mM ATP, read-out: JAK2 IC50
T1 construct: JAK2 (a.a. 828-1132); His tag (N)
T1 sequence (O60674 828-1132): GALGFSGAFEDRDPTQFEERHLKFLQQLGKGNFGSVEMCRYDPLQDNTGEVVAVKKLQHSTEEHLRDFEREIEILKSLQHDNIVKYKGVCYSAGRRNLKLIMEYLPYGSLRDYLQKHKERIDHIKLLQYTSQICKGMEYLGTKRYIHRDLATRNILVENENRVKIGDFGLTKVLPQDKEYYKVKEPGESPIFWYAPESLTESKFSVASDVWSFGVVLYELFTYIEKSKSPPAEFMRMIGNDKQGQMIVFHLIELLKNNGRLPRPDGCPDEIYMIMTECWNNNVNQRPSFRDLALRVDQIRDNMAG
Protocol: Compounds herein were tested for inhibitory activity of JAK targets according to the following in vitro assay described in Park et al., Analytical Biochemistry 1999, 269, 94-104. The catalytic domains of human JAK1 (a.a. 837-1142) and JAK2 (a.a. 828-1132) with an N-terminal His tag were expressed using baculovirus in insect cells and purified. The catalytic activity of JAK1 and JAK2 was assayed by measuring the phosphorylation of a biotinylated peptide. The phosphorylated peptide was detected by homogenous time resolved fluorescence (HTRF). […] Reactions were carried out at room temperature for 1 hour and then stopped with 20 μL 45 mM EDTA, 300 nM SA-APC, 6 nM Eu-Py20 in assay buffer (Perkin Elmer, Boston, Mass.). Binding to the Europium labeled antibody took place for 40 minutes and HTRF signal was measured on a Fusion plate reader (Perkin Elmer, Boston, Mass.). See Tables A-F for data related to compounds of the Examples (at 1 mM). Data is indicated as ranges, wherein “+” is less than 10 nM; “++” is 10 nM to 25 nM; “+++” is greater than 25 nM to 100 nM; and “++++” is greater than 100 nM. Greater than 25 nM to 100 nM specifies a range with a lower endpoint “at greater than 25 nM” and an upper endpoint at 100 nM.

| Compound | IC50 ([1]; Table B) [nM] | IC50 (JAK2 (a.a. 828-1132); Table B) [nM] | IC50 ([1]; Table A) [nM] | IC50 (JAK2 (a.a. 828-1132); Table A) [nM] |
| --- | --- | --- | --- | --- |
| N#CC[C@]1(n2cc(-c3ncnc4[nH]ccc34)cn2)C[C@H](N2CCN(C(=O)c3cc(F)cnc3Cl)CC2)C1 [Example 9b, {trans-3-{4-[(2-chloro-5-fluoropyridin-3-yl)carbonyl]piperazin-1-yl}-1-[4-(7H-pyrrolo[2,3-d]pyrimidin-4-yl)-1H-pyrazol-1-yl]cyclobutyl}acetonitrile] | < 10 | 10 to 25 |  |  |
| N#CC[C@]1(n2cc(-c3ncnc4[nH]ccc34)cn2)C[C@@H](N2CCN(C(=O)c3cncc(F)c3)CC2)C1 [Example 10a, {cis-3-{4-[(5-fluoropyridin-3-yl)carbonyl]piperazin-1-yl}-1-[4-(7H-pyrrolo[2,3-d]pyrimidin-4-yl)-1H-pyrazol-1-yl]cyclobutyl}acetonitrile] |  |  | < 10 | > 100 |
| N#CC[C@]1(n2cc(-c3ncnc4[nH]ccc34)cn2)C[C@H](N2CCN(C(=O)c3cncc(F)c3)CC2)C1 [Example 10b, {trans-3-{4-[(5-fluoropyridin-3-yl)carbonyl]piperazin-1-yl}-1-[4-(7H-pyrrolo[2,3-d]pyrimidin-4-yl)-1H-pyrazol-1-yl]cyclobutyl}acetonitrile tris(trifluoroacetate) Salt] | < 10 | 25 to 100 |  |  |
| N#CC[C@]1(n2cc(-c3ncnc4[nH]ccc34)cn2)C[C@@H](N2CCN(C(=O)c3ccnc(C(F)F)c3F)CC2)C1 [Example 11a, {cis-3-{4-[2-(difluoromethyl)-3-fluoroisonicotinoyl]piperazin-1-yl}-1-[4-(7H-pyrrolo[2,3-d]pyrimidin-4-yl)-1H-pyrazol-1-yl]cyclobutyl}acetonitrile] |  |  | 10 to 25 | > 100 |
| N#CC[C@]1(n2cc(-c3ncnc4[nH]ccc34)cn2)C[C@H](N2CCN(C(=O)c3ccnc(C(F)F)c3F)CC2)C1 [Example 11b, {trans-3-{4-[2-(difluoromethyl)-3-fluoroisonicotinoyl]piperazin-1-yl}-1-[4-(7H-pyrrolo[2,3-d]pyrimidin-4-yl)-1H-pyrazol-1-yl]cyclobutyl}acetonitrile] | < 10 | 25 to 100 |  |  |
| N#CC[C@]1(n2cc(-c3ncnc4[nH]ccc34)cn2)C[C@@H](N2CCN(C(=O)c3cc(F)cc(C#N)c3)CC2)C1 [Example 12a, 3-[(4-{cis-3-(cyanomethyl)-3-[4-(7H-pyrrolo[2,3-d]pyrimidin-4-yl)-1H-pyrazol-1-yl]cyclobutyl}piperazin-1-yl)carbonyl]-5-fluorobenzonitrile] |  |  | < 10 | 25 to 100 |
| N#CC[C@]1(n2cc(-c3ncnc4[nH]ccc34)cn2)C[C@H](N2CCN(C(=O)c3cc(F)cc(C#N)c3)CC2)C1 [Example 12b, 3-[(4-{trans-3-(cyanomethyl)-3-[4-(7H-pyrrolo[2,3-d]pyrimidin-4-yl)-1H-pyrazol-1-yl]cyclobutyl}piperazin-1-yl)carbonyl]-5-fluorobenzonitrile] | < 10 | 10 to 25 |  |  |
| N#CC[C@]1(n2cc(-c3ncnc4[nH]ccc34)cn2)C[C@@H](N2CCN(C(=O)c3nc(C(F)(F)F)cs3)CC2)C1 [Example 13a, [cis-1-[4-(7H-pyrrolo[2,3-d]pyrimidin-4-yl)-1H-pyrazol-1-yl]-3-(4-{[4-(trifluoromethyl)-1,3-thiazol-2-yl]carbonyl}piperazin-1-yl)cyclobutyl]acetonitrile] |  |  | < 10 | 25 to 100 |
| N#CC[C@]1(n2cc(-c3ncnc4[nH]ccc34)cn2)C[C@H](N2CCN(C(=O)c3nc(C(F)(F)F)cs3)CC2)C1 [Example 13b, [trans-1-[4-(7H-pyrrolo[2,3-d]pyrimidin-4-yl)-1H-pyrazol-1-yl]-3-(4-{[4-(trifluoromethyl)-1,3-thiazol-2-yl]carbonyl}piperazin-1-yl)cyclobutyl]acetonitrile] | < 10 | 25 to 100 |  |  |
| N#CC[C@]1(n2cc(-c3ncnc4[nH]ccc34)cn2)C[C@@H](N2CCN(C(=O)c3cncc(C(F)(F)F)n3)CC2)C1 [Example 14a, [cis-1-[4-(7H-pyrrolo[2,3-d]pyrimidin-4-yl)-1H-pyrazol-1-yl]-3-(4-{[6-(trifluoromethyl)pyrazin-2-yl]carbonyl}piperazin-1-yl)cyclobutyl]acetonitrile] |  |  | < 10 | 25 to 100 |
| N#CC[C@]1(n2cc(-c3ncnc4[nH]ccc34)cn2)C[C@H](N2CCN(C(=O)c3cncc(C(F)(F)F)n3)CC2)C1 [Example 14b, [trans-1-[4-(7H-pyrrolo[2,3-d]pyrimidin-4-yl)-1H-pyrazol-1-yl]-3-(4-{[6-(trifluoromethyl)pyrazin-2-yl]carbonyl}piperazin-1-yl)cyclobutyl]acetonitrile] | < 10 | 25 to 100 |  |  |
| N#CC[C@]1(n2cc(-c3ncnc4[nH]ccc34)cn2)C[C@@H](N2CCN(C(=O)c3ccc(F)c(F)c3)CC2)C1 [Example 15a, {cis-3-[4-(3,4-difluorobenzoyl)piperazin-1-yl]-1-[4-(7H-pyrrolo[2,3-d]pyrimidin-4-yl)-1H-pyrazol-1-yl]cyclobutyl}acetonitrile] |  |  | < 10 | 25 to 100 |
| N#CC[C@]1(n2cc(-c3ncnc4[nH]ccc34)cn2)C[C@H](N2CCN(C(=O)c3ccc(F)c(F)c3)CC2)C1 [Example 15b, {trans-3-[4-(3,4-difluorobenzoyl)piperazin-1-yl]-1-[4-(7H-pyrrolo[2,3-d]pyrimidin-4-yl)-1H-pyrazol-1-yl]cyclobutyl}acetonitrile] | < 10 | 10 to 25 |  |  |
| N#CC[C@]1(n2cc(-c3ncnc4[nH]ccc34)cn2)C[C@@H](N2CCN(Cc3c(F)ccc(F)c3Cl)CC2)C1 [Example 16a, {cis-3-[4-(2-chloro-3,6-difluorobenzyl)piperazin-1-yl]-1-[4-(7H-pyrrolo[2,3-d]pyrimidin-4-yl)-1H-pyrazol-1-yl]cyclobutyl}acetonitrile] |  |  | < 10 | 10 to 25 |
| N#CC[C@]1(n2cc(-c3ncnc4[nH]ccc34)cn2)C[C@H](N2CCN(Cc3c(F)ccc(F)c3Cl)CC2)C1 [Example 16b, {trans-3-[4-(2-chloro-3,6-difluorobenzyl)piperazin-1-yl]-1-[4-(7H-pyrrolo[2,3-d]pyrimidin-4-yl)-1H-pyrazol-1-yl]cyclobutyl}acetonitrile] | < 10 | 25 to 100 |  |  |
| N#CC[C@]1(n2cc(-c3ncnc4[nH]ccc34)cn2)C[C@@H](N2CCN(C(=O)c3cc(F)cc(C(F)(F)F)c3)CC2)C1 [Example 17, {cis-3-{4-[3-fluoro-5-(trifluoromethyl)benzoyl]piperazin-1-yl}-1-[4-(7H-pyrrolo[2,3-d]pyrimidin-4-yl)-1H-pyrazol-1-yl]cyclobutyl}acetonitrile] |  |  | < 10 | 25 to 100 |
| N#CC[C@]1(n2cc(-c3ncnc4[nH]ccc34)cn2)C[C@H](N2CCN(C(=O)c3ccc(C(F)(F)F)cc3F)CC2)C1 [Example 18, {trans-3-{4-[2-fluoro-4-(trifluoromethyl)benzoyl]piperazin-1-yl}-1-[4-(7H-pyrrolo[2,3-d]pyrimidin-4-yl)-1H-pyrazol-1-yl]cyclobutyl}acetonitrile 2.3×(trifluoroacetate) Salt] | < 10 | 10 to 25 |  |  |
| N#CC[C@]1(n2cc(-c3ncnc4[nH]ccc34)cn2)C[C@H](N2CCN(C(=O)N3CCCC3)CC2)C1 [Example 19, {trans-3-[4-(pyrrolidin-1-ylcarbonyl)piperazin-1-yl]-1-[4-(7H-pyrrolo[2,3-d]pyrimidin-4-yl)-1H-pyrazol-1-yl]cyclobutyl}acetonitrile] | 10 to 25 | > 100 |  |  |
